Among the data in patent US12606558B2, “Condensed pyrazole derivatives as inhibitors of SARM1” (Disarm Therapeutics, Inc., priority 2020, dated 2026) are IC50 values, retold here.

Each structure is given as a SMILES string. Where only a bound is given, the exact number is not on record here.

In this assay the target is T1, SARM1 (Homo sapiens, UniProt Q6SZW1).
T1 construct: made in house; host or cells: NRK1-HEK293T cells, transient transfection; clarified lysate used without purification
T1 sequence (Q6SZW1 with tags, fused parts or gaps): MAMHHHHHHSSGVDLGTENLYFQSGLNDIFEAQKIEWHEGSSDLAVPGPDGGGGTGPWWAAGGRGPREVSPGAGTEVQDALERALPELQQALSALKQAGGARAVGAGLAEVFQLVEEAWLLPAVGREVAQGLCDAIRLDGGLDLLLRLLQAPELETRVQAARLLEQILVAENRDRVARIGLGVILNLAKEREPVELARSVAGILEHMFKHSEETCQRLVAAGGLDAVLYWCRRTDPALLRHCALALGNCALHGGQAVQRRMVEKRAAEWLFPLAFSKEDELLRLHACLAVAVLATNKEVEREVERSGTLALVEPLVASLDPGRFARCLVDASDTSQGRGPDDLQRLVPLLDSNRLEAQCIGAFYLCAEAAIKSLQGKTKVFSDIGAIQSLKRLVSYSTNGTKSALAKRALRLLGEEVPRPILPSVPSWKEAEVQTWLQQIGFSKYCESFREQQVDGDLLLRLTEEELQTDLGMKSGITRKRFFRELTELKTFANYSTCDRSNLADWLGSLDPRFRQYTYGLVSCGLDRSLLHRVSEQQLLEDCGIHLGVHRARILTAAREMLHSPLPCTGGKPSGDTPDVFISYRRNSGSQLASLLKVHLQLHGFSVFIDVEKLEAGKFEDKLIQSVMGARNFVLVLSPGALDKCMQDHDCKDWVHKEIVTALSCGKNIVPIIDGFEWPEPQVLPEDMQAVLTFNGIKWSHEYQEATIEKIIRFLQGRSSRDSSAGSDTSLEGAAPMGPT
The assay is described as follows: ARM-SAM-TIR SARM1 IC50 assay (NADase activity, NAD+ cleavage). Type of assay: biochemical. The following applies: ARM-SAM-TIR lysate 5 μg/mL, 2 h pre-incubation, 5 μM NAD+, 2 hr room temperature, RapidFire mass spectrometry of NAD+ and ADPR. The method, then: This Example describes an assay of ARM-SAM-TIR NADase activity and use of this assay to measure the efficacy of compounds of Formula I/II to block SARM1 mediated NAD+ cleavage. This assay was optimized in such a way as to characterize the efficacy of the compounds in Formula I/II to inhibit SARM1 activity and to calculate an IC50 value for each compound. This assay makes use of full length SARM1, which encompasses the ARM, SAM and TIR domains.
NRK1-HEK293T cells were seeded onto 150 cm^2 plates at 20×10^6 cells per plate. The next day, the cells were transfected with 15 μg ARM-SAM-TIR expression plasmid, SEQ ID NO: 1.
The cultures were supplemented with 1 mM NR at time of transfection to minimize toxicity from ARM-SAM-TIR overexpression. Forty-eight hours after transfection, cells were harvested, pelleted by centrifugation at 1,000 rpm (Sorvall ST 16R centrifuge, Thermo Fisher), and washed once with cold PBS (0.01 M phosphate buffered saline NaCl 0.138 M; KCl 0.0027 M; pH 7.4). The cells were resuspended in PBS with protease inhibitors (cOmplete™ protease inhibitor cocktail, Roche product #11873580001) and cell lysates were prepared by sonication (Branson Sonifer 450, output=3, 20 episodes of stroke). The lysates were centrifuged (12,000×g for 10 min at 4° C.) to remove cell debris and the supernatants (containing ARM-SAM-TIR protein) were stored at −80° C. for later use in the in vitro ARM-SAM-TIR NADase assay (see below). Protein concentration was determined by the Bicinchoninic (BCA) method and used to normalize lysate concentrations.
The enzymatic assay was performed in a 384-well polypropylene plate in Dulbecco's PBS buffer in a final assay volume of 20 μL. ARM-SAM-TIR lysate with a final concentration of 5 μg/mL was pre-incubated with the respective compound at 1% DMSO final assay concentration over 2 h at room temperature. The reaction was initiated by addition of 5 μM final assay concentration of NAD+ as substrate. After a 2 hr room temperature incubation, the reaction was terminated with 40 μL of stop solution of 7.5% trichloroactetic acid in acetonitrile. The NAD+ and ADPR concentrations were analyzed by a RapidFire High Throughput Mass Spectrometry System (Agilent Technologies, Santa Clara, Calif.) using an API4000 triple quadrupole mass spectrometer (AB Sciex Framingham, Mass.).
Usually IC50 stands for the concentration that gives 50% inhibition. Higher therefore signals a need for much substance. In the case of `O=C1CCN(C(=O)CCc2ccc(Cl)cc2)c2[nH]nc(-c3ccncc3)c21` [Example 17], the concentration for half-maximal inhibition (IC50) was below 100 nM. `O=C(CCc1ccc(Cl)nc1)N1CCC(O)c2c(-c3ccncc3)n[nH]c21` (centres unmarked) [Example 20] displayed an IC50 of 100 to 1000 nM. Next, `O=C(CCc1ccc(Cl)cc1)N1CCOc2c(-c3ccncc3)n[nH]c21` [Example 3]: below 100 nM.

Turning to `O=C(CCc1ccc(Cl)nc1)N1CCCc2c(-c3ccncc3)n[nH]c21` [Example 1], the IC50 was in the range of 100 to 1000 nM.

In turn, `O=C1CCN(C(=O)CCc2ccc(Cl)nc2)c2[nH]nc(-c3ccncc3)c21` [Example 18] showed an IC50 of 100 to 1000 nM.

Take `N#Cc1ccc(CCC(=O)N2CCCc3c(-c4ccncc4)n[nH]c32)cc1` [Example 8]: the IC50 lay in the range of 100 to 1000 nM. In the case of `O=C(CCc1ccc(Cl)cc1)N1CCCc2c(-c3ccncc3)n[nH]c21` [Example 2], the IC50 was below 100 nM. Take `O=C(CCc1cnc(Cl)c(F)c1)N1CCCc2c(-c3ccncc3)n[nH]c21` [Example 11]: the IC50 is below 100 nM. For the compound `O=C(CCc1ccc(Cl)c(F)c1)N1CCCc2c(-c3ccncc3)n[nH]c21` [Example 13], the IC50 is below 100 nM.

In the case of `N#Cc1ccc(CCC(=O)N2CCCc3c(-c4ccnnc4)n[nH]c32)cc1` [Example 9], the IC50 is below 100 nM.

In turn, `O=C(CCc1ccc(Cl)nc1)N1CCCc2c(-c3ccnnc3)n[nH]c21` [Example 10] had an IC50 below 100 nM. Next, `O=C(CCc1ccc(Cl)cc1)N1CCCc2c(-c3ccnnc3)n[nH]c21` [Example 7]: below 100 nM; `O=C(CCc1ccc(Cl)cc1)N1CCC(O)c2c(-c3ccncc3)n[nH]c21` (centres unmarked) [Example 19]: below 100 nM; `N#Cc1ccc(CCC(=O)N2CCCc3c(-c4ccnnc4)n[nH]c32)cc1F` [Example 16]: below 100 nM. Next, `O=C(NCc1ccc(Cl)nc1)N1CCCc2c(-c3ccncc3)n[nH]c21` [Example 4]: above 10000 nM; `O=C(CCc1ccc(Cl)c(F)c1)N1CCCc2c(-c3ccnnc3)n[nH]c21` [Example 15]: below 100 nM; `O=C(NCc1ccc(Cl)cc1)N1CCCc2c(-c3ccncc3)n[nH]c21` [Example 5]: 1010 to 5000 nM.

As to `O=C(CCc1ccc(Cl)cc1)N1CCOc2c(-c3ccnnc3)n[nH]c21` [Example 6], the IC50 was below 100 nM.

With `N#Cc1ccc(CCC(=O)N2CCCc3c(-c4ccncc4)n[nH]c32)cc1F` [Example 14], the IC50 is below 100 nM. To `O=C(CCc1cnc(Cl)c(F)c1)N1CCCc2c(-c3ccnnc3)n[nH]c21` [Example 12] belongs below 100 nM.
